Results from patent US12600732B2, “Bifunctional compounds for degrading BTK via ubiquitin proteosome pathway” (NURIX THERAPEUTICS, INC., priority 2019, dated 2026).
“And” between values parts separate entries of the source, which are not always exact repeats. Equal entries are not always repeated.

Columns and labels:
primary human T cells [1] = assay: T cell activation assay, IL-2 secretion (ELISA); assay type: cell-based; conditions: for IL-2 secretion compared to baseline (anti-CD3/anti-CD28 stimulation alone): primary human T cells
Description: (§1) This example evaluates whether CTMs with IMiD activity affect T cell activation. […] These assays were performed to assess whether BTK CTMs with and without IMiD activity affected activation of primary human T cells after stimulation of the T cell receptor with anti-CD3/ati-CD28 stimulation. T cell activation was measured by IL-2 secretion (ELISA assay) and upregulation of activation markers CD25 and CD69 on the surface of T cells (flow cytometry). Data are presented as the fold-change of response relative to baseline (stimulation with anti-CD3/anti-CD28 stimulation in the absence of compound).

primary human T cells [2] = assay: T cell activation assay, CD25 and CD69 staining (flow cytometry); assay type: cell-based; conditions: for CD25 Staining Anti-CD3/Anti-CD28 Stimulation / CD69 Staining Anti-CD3/Anti-CD28 Stimulation: fold-change of response relative to baseline; for expression of CD25 and CD69 compared to baseline (anti-CD3/anti-CD28 stimulation alone): primary human T cells
Description: as §1

TMD8 cells = assay: Cell viability assay (CellTiter-Glo), TMD8 cells; conditions: for EC50: Homo sapiens, TMD8, 72 h; for EMAX (% viable cells): TMD8 cells, treatment time 72 h
TMD8 C481S cells = assay: Cell viability assay (CellTiter-Glo), TMD8 C481S cells; conditions: for EC50: Homo sapiens, TMD8, 72 h; for EMAX (% viable cells): TMD8 C481S cells, treatment time 72 h
Description: Cell viability was determined using CellTiter-Glo 2.0 Luminescent Cell Viability Assay (Promega, G9242), which quantitates the amount of ATP present as a proxy for the number of viable cells in culture. Cells were plated with densities between 2000-4000 cells per well in 96-well plates. […] CellTiter-Glo reagent was added to cells at a dilution of 1:20, and the plate was incubated ten minutes at room temperature prior to reading the luminescence signal using an EnVision plate reader. Controls included cells treated with DMSO and wells that contained no cells, only media. Background luminescence signal was determined by control wells containing no cells, only media, and was then subtracted from all sample wells. Luminescence values were then normalized to DMSO-treated wells and reported at proportion viable cells.

BTK = target: T1, BTK (Mus musculus, UniProt P35991); assay: In vivo degradation of BTK in mouse PD experiments with oral dosing; conditions: 6 h
T1 construct: from tissue; host or cells: mouse blood B cells / splenocytes (CD-1 or BALB/c)
T1 sequence (P35991 whole entry): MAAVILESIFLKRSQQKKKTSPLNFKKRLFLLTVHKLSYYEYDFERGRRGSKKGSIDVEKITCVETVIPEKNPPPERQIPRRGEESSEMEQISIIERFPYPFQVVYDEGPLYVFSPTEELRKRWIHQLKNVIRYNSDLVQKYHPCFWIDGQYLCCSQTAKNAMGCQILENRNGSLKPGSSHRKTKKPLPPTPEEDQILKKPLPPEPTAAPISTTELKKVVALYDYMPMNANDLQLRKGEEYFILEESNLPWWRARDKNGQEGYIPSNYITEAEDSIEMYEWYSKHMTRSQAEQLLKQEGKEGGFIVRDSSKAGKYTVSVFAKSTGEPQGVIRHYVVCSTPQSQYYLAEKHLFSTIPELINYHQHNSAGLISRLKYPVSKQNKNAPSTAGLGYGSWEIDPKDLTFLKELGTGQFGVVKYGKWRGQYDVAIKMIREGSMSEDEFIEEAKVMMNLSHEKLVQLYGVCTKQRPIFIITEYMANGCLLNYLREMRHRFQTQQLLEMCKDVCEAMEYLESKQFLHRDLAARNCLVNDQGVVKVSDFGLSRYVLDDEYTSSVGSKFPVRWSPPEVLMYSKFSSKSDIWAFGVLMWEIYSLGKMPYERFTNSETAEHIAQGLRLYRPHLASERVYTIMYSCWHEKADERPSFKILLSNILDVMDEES
Description: A method of determining the pharmacodynamic profile of BTK degraders was performed by dosing either CD-1 or BALB/c mice with CTM. The CTM was prepared in a suitable formulation and was administered via oral gavage (PO) at a suitable dose level and frequency as informed by prior pharmacokinetic and tolerability studies. Following administration of CTM, BTK levels in blood or splenocytes are measured using flow cytometry or HTRF. For assessment of BTK levels via flow cytometry, either whole blood or splenocytes were first treated with ACK RBC lysis buffer to facilitate lysing of red blood cells. Remaining cells were then stained with fluorophore-conjugated antibodies against CD45, TCR beta and CD45R (B220). Cell pellets were washed with 1×PBS, fixed, and permeabilized for twenty-four hours with Foxp3/Transcription Factor Fixation/Permeabilization Kit. Cells were then stained intracellularly with unconjugated BTK antibody and detected with a fluorophore-conjugated secondary antibody. Stained cells were run on an Attune N×T Acoustic Focusing Flow Cytometer (Thermo-Fisher A29004), and data was analyzed using FlowJo (v10.5.3) and GraphPad Prism (v7.00) software. Lymphocytes were gated for B cells defined as CD45+ TCR beta−B220+ and T cells as CD45+ TCR beta+B220−. The BTK geometric mean fluorescence intensity (MFI) was calculated for B and T cells. Percent BTK degradation for each compound-treated sample was calculated using the equation described below: % Degradation=100*(Treated sample B cell BTK MFI-treated sample T cell BTK MFI)/Vehicle B cell BTK MFI-Vehicle T cell BTK MFI)
This example evaluates in vivo activity of BTK CTMs via a direct mouse PD measurement following oral dosing
Screens were completed at 90 mg/kg for six hours, and then changed to lower doses/longer time points after seeing strong BTK degradation activity with an initial set of compounds. This assay was useful in selecting compounds for in vivo efficacy experiments.

[3] = 1.4 nM, fold-change of response relative to baseline
[4] = 37 nM, fold-change of response relative to baseline
[5] = 333 nM, fold-change of response relative to baseline (stimulation without compound)

SMILES	IL-2 Secretion Anti-CD3/Anti-CD28 Stimulation (primary human T cells [1]; [3])	IL-2 Secretion Anti-CD3/Anti-CD28 Stimulation (primary human T cells [1]; [4])	IL-2 Secretion Anti-CD3/Anti-CD28 Stimulation (primary human T cells [1]; [5])	CD25 Staining Anti-CD3/Anti-CD28 Stimulation (primary human T cells [2]; 1.4 nM)	CD69 Staining Anti-CD3/Anti-CD28 Stimulation (primary human T cells [2]; 1.4 nM)	CD25 Staining Anti-CD3/Anti-CD28 Stimulation (primary human T cells [2]; 37 nM)	CD69 Staining Anti-CD3/Anti-CD28 Stimulation (primary human T cells [2]; 37 nM)	CD25 Staining Anti-CD3/Anti-CD28 Stimulation (primary human T cells [2]; 333 nM)	CD69 Staining Anti-CD3/Anti-CD28 Stimulation (primary human T cells [2]; 333 nM)	EC50 (TMD8 cells)	EMAX (% viable cells) (TMD8 cells)	EC50 (TMD8 C481S cells)	EMAX (% viable cells) (TMD8 C481S cells)	% BTK Remaining (BTK; oral dose 90 mg/kg, splenocytes, HTRF)	IL-2 secretion compared to baseline (anti-CD3/anti-CD28 stimulation alone) (primary human T cells [1])	expression of CD25 and CD69 compared to baseline (anti-CD3/anti-CD28 stimulation alone) (primary human T cells [2])	% BTK Remaining (BTK; oral dose 1 mg/kg, splenocytes, HTRF, 1 mg/kg)	% BTK Remaining (BTK; oral dose 3 mg/kg, splenocytes, HTRF)	% BTK Remaining (BTK; oral dose 3 mg/kg, blood, flow cytometry)	% BTK Remaining (BTK; oral dose 1 mg/kg, splenocytes, HTRF)
CN1CCN([C@H]2CCCN(c3cnc(C(N)=O)c(Nc4ccc5c(c4)CCN(CC4CN(c6ccc7c(c6)C(=O)N(C6CCC(=O)NC6=O)C7=O)C4)C5)n3)C2)C1=O (some centres unmarked) [Compound 92]	1.53	2.19	1.63	1.14	1.09	1.21	1.29	1.06	1.35	–	–	–	–	–	–	–	–	–	–	–
CN1CCN([C@@H]2CCCN(c3cnc(C(N)=O)c(Nc4ccc(C5CCN(CC6CCN(c7ccc8c(c7)C(=O)N(C7CCC(=O)NC7=O)C8=O)CC6)CC5)cc4)n3)C2)C1=O (some centres unmarked) [Compound 51]	1.19	1.99	2.12	0.86	0.91	0.62	0.62	0.38	0.39	0.32 nM	20%	1.95 nM	49%	2%	–	–	–	–	–	–
CN1CCN([C@@H]2CCCN(c3cnc(C(N)=O)c(Nc4ccc(OCCCNc5ccc6c(c5)C(=O)N(C5CCC(=O)NC5=O)C6=O)cc4)n3)C2)C1=O (some centres unmarked) [Compound 64]	1.28	1.80	1.48	1.17	1.14	1.04	1.14	0.34	0.64	–	–	–	–	–	–	–	–	–	–	–
Nc1cccc2c1CN(C1CCC(=O)NC1=O)C2=O (centres unmarked) [Lenalidomide, lenalidomide, reference compound]	1.63	4.48	8.67	1.26	1.20	1.73	1.49	1.93	1.81	–	–	–	–	–	induce IL-2 secretion	increase expression	–	–	–	–
CN1CCN([C@@H]2CCCN(c3cnc(C(N)=O)c(Nc4ccc(N5CCN(C[C@@H]6[C@H]7CN(c8ccc9c(c8)C(=O)N(C8CCC(=O)NC8=O)C9=O)C[C@@H]67)CC5)cc4)n3)C2)C1=O (some centres unmarked) [Compound 38]	1.21	1.58	1.81	1.05	1.02	1.02	0.99	0.86	0.90	–	–	–	–	–	–	–	68% and 76%	38%	–	–
CN1CCN([C@H]2CCCN(c3cnc(C(N)=O)c(Nc4cnn(C5CCN(CC6CN(c7ccc8c(c7)C(=O)N(C7CCC(=O)NC7=O)C8=O)C6)CC5)c4)n3)C2)C1=O (some centres unmarked) [Compound 78]	1.00	1.17	1.20	0.99	1.00	0.73	0.66	0.44	0.43	9.04 nM	41%	7.19 nM	37%	–	–	–	–	–	74%	–
Nc1cccc2c1C(=O)N(C1CCC(=O)NC1=O)C2=O (centres unmarked) [Pomalidomide, pomalidomide, reference compound]	1.31	4.80	5.50	1.03	1.01	1.39	1.33	1.63	1.77	–	–	–	–	–	induce IL-2 secretion	increase expression	–	–	–	–
CN1CCN([C@@H]2CCCN(c3cnc(C(N)=O)c(Nc4ccc(C5CCN(CCCNc6cccc7c6C(=O)N(C6CCC(=O)NC6=O)C7=O)CC5)cc4)n3)C2)C1=O (some centres unmarked) [Compound 155]	1.62	3.13	3.11	1.31	1.25	1.46	1.34	1.21	1.20	–	–	–	–	–	–	–	–	–	–	–
CN1CCN([C@@H]2CCCN(c3cnc(C(N)=O)c(Nc4ccc(C5CCN(C[C@H]6CC[C@H](Nc7cccc8c7C(=O)N(C7CCC(=O)NC7=O)C8=O)CC6)CC5)cc4)n3)C2)C1=O (some centres unmarked) [Compound 154]	1.77	3.38	3.45	1.23	1.18	1.36	1.29	1.13	1.16	–	–	–	–	–	–	–	–	–	–	–
CN1CCN([C@@H]2CCCN(c3cnc(C(N)=O)c(Nc4ccc(N5CC6(C5)CN(c5ccc7c(c5)C(=O)N(C5CCC(=O)NC5=O)C7=O)C6)cc4)n3)C2)C1=O (stereo partly drawn) [Compound 34, 3-((4-(6-(2-(2,6-dioxopiperidin-3-yl)-1,3-dioxoisoindolin-5-yl)-2,6-diazaspiro[3.3]heptan-2-yl)phenyl)amino)-5-((R)-3-(3-methyl-2-oxoimidazolidin-1-yl)piperidin-1-yl)pyrazine-2-carboxamide]	1.48	1.66	1.58	1.21	1.14	1.31	1.21	1.25	1.23	–	–	–	–	–	–	–	–	–	–	75%
